“And” between values parts separate entries of the source, which are not always exact repeats. Equal values may be shown once. Read-outs that look alike come from different tables or passages of the source.
Key:
[1] = target: T1, MmΔIBBIMPα (Mus musculus, UniProt P52293); experiment: AlphaScreen binding assay, MmΔIBBIMPα:T-ag-NLS-GFP interaction
T1 construct: made in house
Method: (§1) PfIMPα, TgIMPα, Mus musculus IMPα (MmIMPα), ΔIBBMmIMPα, and β1 (MmIMPβ) GST fusion proteins were expressed and purified essentially as previously. His-tagged TGS1-NLS-GFP, PfIMPα and TgIMPα proteins were purified using Ni^2+-affinity chromatography as described. His-tagged SV40 T-ag-NLS-GFP was purified as previously. Biotinylation of GST-tagged proteins was carried out using the Sulfo-NHS-Biotin reagent (Pierce, Rockford, IL, USA) as described previously. AlphaScreen binding assay was performed as described previously.
(§2) Plates were read for an Alphascreen signal on an Envision plate reader (PerkinElmer, Waltham, MA, USA), with signals from the negative control wells (no bait control) on each plate subtracted.

[2] = target: T2, PfIMPα (Plasmodium falciparum, UniProt Q8IAW0); experiment: Thermostability assay (TSA), PfIMPα; assay type: binding
T2 sequence (Q8IAW0 entry or part of it): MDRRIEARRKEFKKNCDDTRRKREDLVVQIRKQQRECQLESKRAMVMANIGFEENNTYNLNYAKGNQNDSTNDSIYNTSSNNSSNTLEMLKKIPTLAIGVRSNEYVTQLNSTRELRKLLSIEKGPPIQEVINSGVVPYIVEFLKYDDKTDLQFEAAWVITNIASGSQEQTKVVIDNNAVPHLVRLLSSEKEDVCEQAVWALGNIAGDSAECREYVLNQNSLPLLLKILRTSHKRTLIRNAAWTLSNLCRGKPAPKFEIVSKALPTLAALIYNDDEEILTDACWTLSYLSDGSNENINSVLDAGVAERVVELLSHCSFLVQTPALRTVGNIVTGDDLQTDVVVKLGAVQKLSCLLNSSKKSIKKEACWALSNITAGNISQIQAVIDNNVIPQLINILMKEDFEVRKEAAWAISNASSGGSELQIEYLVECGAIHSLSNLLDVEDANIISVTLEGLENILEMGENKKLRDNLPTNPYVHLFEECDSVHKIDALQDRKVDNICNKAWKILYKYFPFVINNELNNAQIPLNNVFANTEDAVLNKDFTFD
Method: (§3) The effect of inhibitory compounds on IMPα thermostability was tested, as previously, using the fluorescent dye SYPRO Orange (Thermo Fisher Scientific, Waltham, MA, USA) and the Qiagen Rotor-Gene Q6 plex instrument programmed in the melt curve mode. Increasing concentrations of compound in 0.5 µL DMSO were added to 24.5 µL recombinant protein (2 µM) in phosphate-buffered saline (PBS). Next, 1 µL of SYPRO Orange dye was added, the reaction mixture heated at 0.5 °C/min from 27 °C to 90 °C, and the fluorescence intensity caused by the SYPRO Orange binding to the proteins monitored (excitation/emission: 530/555 nm). Tm is the temperature at which 50% of the protein is unfolded.

[3] = target: TgIMPα (Toxoplasma gondii, UniProt A0A125YID0); experiment: Thermostability assay (TSA), TgIMPα; assay type: binding
TgIMPα, sequence (A0A125YID0 entry or part of it): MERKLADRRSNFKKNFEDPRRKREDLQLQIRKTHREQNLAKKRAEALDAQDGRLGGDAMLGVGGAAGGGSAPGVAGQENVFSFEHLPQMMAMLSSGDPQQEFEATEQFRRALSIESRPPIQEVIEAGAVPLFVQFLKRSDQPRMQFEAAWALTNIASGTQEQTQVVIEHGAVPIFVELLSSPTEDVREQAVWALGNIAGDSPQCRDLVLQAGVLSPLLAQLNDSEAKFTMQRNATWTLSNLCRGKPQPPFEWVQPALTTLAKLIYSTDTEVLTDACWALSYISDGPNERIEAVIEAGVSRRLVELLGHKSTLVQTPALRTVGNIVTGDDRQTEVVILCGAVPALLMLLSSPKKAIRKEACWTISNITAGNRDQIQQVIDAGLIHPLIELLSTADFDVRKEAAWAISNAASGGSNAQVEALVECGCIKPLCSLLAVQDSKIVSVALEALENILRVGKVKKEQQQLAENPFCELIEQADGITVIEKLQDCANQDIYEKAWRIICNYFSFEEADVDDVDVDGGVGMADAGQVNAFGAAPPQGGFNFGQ
Method: as §3

[4] = target: T3, MmIMPα (Mus musculus, UniProt P52293); experiment: Thermostability assay (TSA), MmIMPα; assay type: binding
T3 construct: GST; made in house
Method: as §3

[5] = tested on: P. falciparum 3D7 strain; experiment: P. falciparum growth inhibition assay (HRP2 sandwich ELISA); assay type: cell-based, Plasmodium falciparum
Method: Red blood cells (RBCs) were derived from blood from volunteers (approval from the Institute Ethics Committee, IIT Bombay, Mumbai, India) by density gradient centrifugation. Aliquots of cryopreserved P. falciparum 3D7 strain in human red blood cells (RBCs—3% hematocrit, <5% parasitemia) were thawed and cultured using RPMI (Roswell Park Memorial Institute) 1640 medium supplemented with 0.5% Albumax (Gibco^TM, Waltham, MA, USA), 50 mg/L hypoxanthine (Sigma-Aldrich, St Louis, MO, USA), 2 g/L D-glucose (Sigma-Aldrich, St Louis, MO, USA), 2 g/L sodium bicarbonate (Sigma-Aldrich, St Louis, MO, USA), and 56 mg/L of gentamicin (Abbott, Chicago, IL, USA) at 37 °C in 5% CO2 in a humidified incubator according to the standard procedures; suspension cultures were maintained at 3% hematocrit and <5% parasitemia, by adding a fresh medium daily and a regular addition of fresh human RBCs.
Before growth inhibition assays, cultures were synchronized using 5% D-sorbitol (Sigma-Aldrich, St Louis, MO, USA) predominantly to obtain the ring stage of the P. falciparum life cycle.
Growth assays in the absence and presence of inhibitors were performed using the Histidine–Rich Protein 2 (HRP2) sandwich horseradish peroxidase-linked immunosorbent assay to measure HRP2 protein levels as an indicator of growth. Briefly, 25 µL of compound was added to 96-well microculture plates (Eppendorf, Hamburg, Germany) of 0.25% (with fresh RBCs), and added at a hematocrit of 3%. The plates were then incubated for 72 h at 37 °C in a humidified incubator, sparged with 5% CO2. 72 h later, the plates were subjected to freeze–thaw to achieve hemolysis, and samples diluted 200-fold in H2O in transferring to another plate. A day prior to analysis, 96-well ELISA plates (Sigma-Aldrich, St Louis, MO, USA) were coated overnight at 4 °C with 100 µL of 1 μg/mL IgM capture antibody MPFM-55A (Immunology Consultants Laboratory, Portland, OR, USA) specific for P. falciparum HRP2. After blocking for 2 h at room temperature with 2% BSA in PBS, diluted samples were added to the wells, followed by incubation for 2 h, then the plates were washed three times with 0.05% Tween 20 in PBS. Next, 100 µL of the secondary antibody MPFG-55P (Immunology Consultants Laboratory, Portland, OR, USA) conjugated with horseradish peroxidase (0.25 μg/mL in PBS with 2% BSA) was then added to each well, and the plates incubated for 1 h at room temperature, prior to being washed three times, and 100 µL 3,3′, 5,5′ tetramethylbenzidine substrate (BD Biosciences, San Jose, CA, USA) being added. After 10 min incubation in the dark, 50 µL of 1 M H2SO4 was added and the absorbance was read at 450 nm on a Multiscan™ FC Microplate Spectrophotometer (Thermo Fisher Scientific, Waltham, MA, USA).

[6] = tested on: HFF cells; experiment: MTT assay for host cell cytotoxicity; assay type: cell-based, human
Method: The MTT assay was used to measure the cytotoxicity of the small molecules against the HFF cells as described. Briefly, freshly confluent HFF cells in a 96-well culture plate were treated with increasing concentrations of compounds for 48 h, prior to the MTT assay.

[7] = target: T2, PfIMPα; assay type: binding
[8] = target: T4, MmIMPα/β heterodimer (Mus musculus, UniProt P52293); experiment: AlphaScreen binding assay, MmIMPα/β:T-ag-NLS-GFP interaction; settings: compounds at 10 μM, MmIMPα/β (5 nM):T-ag-NLS-GFP (30 nM), relative to 1% DMSO control
T4 construct: GST; made in house
Method: as §1, §2

[9] = tested on: T. gondii tachyzoites; settings: cited from earlier work
[10] = tested on: P. falciparum; settings: cited from earlier work
[11] = compounds at 10 μM, ΔIBBMmIMPα (5 nM):T-ag-NLS-GFP (30 nM), relative to 1% DMSO control
[12] = pooled, mean ± SEM (n = 3), read-out: IC50 MmΔIBBIMPα:T-ag-NLS
[13] = single experiment (Figure 3), IMPα 5 nM, NLS 30 nM, read-out: IC50 MmΔIBBIMPα:T-ag-NLS-GFP
[14] = concentrations higher than 20 µM
[15] = 10 µM, 72 h, 0.25% parasitemia (Figure 5A)
[16] = pooled, mean ± SEM (n = 3), read-out: IC50 PfIMPα:TGS1-NLS-GFP
[17] = concentrations of 75 µM or higher

## CC(C)(C)c1ccc(S(=O)(=O)/C=C/C#N)cc1 [Bay 11-7085]
[1]; [11]
  % Inhibition of IMPα-NLS Interaction MmΔIBBIMPα: 9%
[1]; [12]
  IC50: 23 µM and 23.4 µM
[1]; selectivity for PfIMPα
  fold higher IC50 for ΔIBBMmIMPα-NLS compared to PfIMPα-TGS-NLS interaction: ~12 fold
[1]; [13]
  IC50: 31 µM
[2]; [14]
  increase of stability of PfIMPα: 9–11 °C
  thermostability of PfIMPα reached: 48–50 °C
[2]; concentrations up to 10 µM
  reduction of stability of PfIMPα: 6 °C
  thermostability of PfIMPα reached: 39 °C
[3]; 10–20 µM
  TgIMPα stable only up to: 30–36 °C
  reduction of thermostability of TgIMPα: 9–15 °C
[4]; 10–20 µM
  MmIMPα stable only up to: 30–36 °C
  reduction of thermostability of MmIMPα: 9–15 °C
[5]; [15]
  inhibition of P. falciparum growth (HRP2 levels): ~20%
[5]; parasites in culture, 72 h, pooled, mean ± SD (n = 3)
  IC50: > 10 µM
[6]
  CC50: 8.2 ± 0.7 µM
[7]; [16]
  IC50: 2000 nM and 1900 nM
[7]; range over both comparisons
  fold lower IC50 for PfIMPα compared to both TgIMPα and MmIMPα: 12-16 fold

## O=C(/C=C/c1ccc(O)c(O)c1)OCCc1ccccc1 [CAPE, Caffeic acid phenethyl ester]
[1]; compounds at 10 μM, ΔIBBMmIMPα (5 nM):T-ag-NLS-GFP (30 nM), relative to 1% DMSO control, read-out: % Inhibition of IMPα-NLS Interaction MmΔIBBIMPα
  inhibition at 10 µM: 92%
[1]; [12]
  IC50: 0.7 ± 0.1 µM
[8]; read-out: % Inhibition of IMPα-NLS Interaction MmIMPα/β
  inhibition at 10 µM: 14%
[2]; [17]
  increase in thermostability of PfIMPα: 2 °C
  thermostability of PfIMPα reached: 47 °C
[3]; up to 100 µM
  change in stability of TgIMPα: did not elicit any marked change in stability
[4]; up to 100 µM
  change in stability of MmIMPα: did not elicit any marked change in stability
[5]; Plasmodium falciparum, 3D7, 72 h, parasites in culture, pooled, mean ± SD (n = 3)
  IC50: 7.5 ± 1.1 µM
[5]; Plasmodium falciparum, 3D7, 72 h, single typical experiment (Figure 6)
  IC50: 6.5 µM
[5]; Plasmodium falciparum, 3D7, 10 µM, 72 h, 0.25% parasitemia (Figure 5A), read-out: inhibition of P. falciparum growth (HRP2 levels)
  inhibition at 10 µM: > 50%

## CC(=O)OC[C@H]1O[C@@H]([S-])[C@H](OC(C)=O)[C@@H](OC(C)=O)[C@@H]1OC(C)=O.CCP(CC)CC.[Au+] [auranofin]
[1]; [11]
  % Inhibition of IMPα-NLS Interaction MmΔIBBIMPα: 91%
[1]; [12]
  IC50: 0.06 ± 0.01 µM
[1]; [13]
  IC50: 0.05 µM
[8]
  % Inhibition of IMPα-NLS Interaction MmIMPα/β: 100%
[2]; concentrations as low as 5 μM
  PfIMPα stable only up to: 32–35 °C
  reduction of thermostability of PfIMPα: 12–15 °C
[3]; concentrations as low as 5 μM
  TgIMPα stable only up to: 32–35 °C
  reduction of thermostability of TgIMPα: 12–15 °C
[4]; concentrations as low as 5 μM
  MmIMPα stable only up to: 32–35 °C
  reduction of thermostability of MmIMPα: 12–15 °C
[5]; [15]
  inhibition of P. falciparum growth (HRP2 levels): > 50%
[6]; MTT assay, 48 h, mean ± SD (n = 2), read-out: CC50 HFF cells
  CC50: 5.1 µM
[6]; at concentrations < c. 5 µM
  cytotoxicity to HFF cells: essentially absent
[7]; [16]
  IC50: 70 ± 10 nM
[7]; range over PfIMPα, TgIMPα and MmΔIBBIMPα interactions, read-out: IC50 values of all three IMPα:NLS interactions
  IC50: 60 to 80 nM
[7]; single experiment (Figure 3), IMPα 5 nM, NLS 30 nM, read-out: IC50 PfIMPα:TGS1-NLS-GFP
  IC50: 80 nM
[9]
  activity against cultured T. gondii: possess activity
[10]
  activity against P. falciparum: possess activity

Source: paper PMC8997399, “High-Throughput Screening to Identify Inhibitors of Plasmodium falciparum Importin α” (Cells, 2022)
